The results in this text go back to US10626103B2, “Inhibitor of lysine specific demethylase-1” (CELGENE QUANTICEL RESEARCH, INC., priority 2014, dated 2020).

Broadly, the IC50 is the point on the concentration scale where inhibition reaches its midpoint.

The test system of test [1] is Kasumi-1 AML cancer cell line. The experiment in a line: Kasumi-1 AML cell line proliferation assay (Cell-MTS assay). It is filed as cell-based. The settings on record: Homo sapiens, Kasumi-1 cells, 168 hours. An excerpt:
Colorimetric cellular assay to assess the ability of LSD-1 small molecule inhibitors to effect the proliferation of the established AML cancer cell line Kasumi-1.
This Cell-MTS assay is a 7-day plate based colorimetric assay which quantifies the amount of newly generated NADH in the presence and absence of test compound. These NADH levels are used as a proxy for the quantification of cancer cell proliferation.
The established cancer cell line Kasumi-1 with a verified p53 mutation were purchased from American Type Culture Collection (ATCC) and routinely passaged according to ATCC published protocols. For routine assay these cells were seeded at a density of 20,000 cells per 96-well. 24 hours after plating, cells received an 11 point dilution of test compound with final concentration ranges from 100 LM to 2.0 nM. Cells are incubated in the presence of compound for 168 hours at 37° C., 5% CO2. At the end of this compound incubation period, 80 μl of media is removed and 20 μL of CellTiter 96® AQueous Non-Radioactive Cell Proliferation Assay solution (Promega) is added. The cells are incubated until the OD490 is >0.6. IC50 values are calculated using the IDBS XLfit software package and include background subtracted OD490 values and normalization to DMSO controls.
Table 5 provides the Kasumi-1 cellular IC50 values of various substituted heterocyclic compounds disclosed herein.

Test [2] deals with CD11b expression in THP-1 (AML) cells. As to the kind of experiment: LSD1 CD11b cellular assay (flow cytometry). It is filed as cell-based. The settings on record: Homo sapiens, 96 h, THP-1 cells, 4 days. In a few lines:
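THP-1 cells were exposed to serially diluted compounds (0.2% DMSO final) for 4 days at 37 °C. CD11b expression was measured by flow cytometry with DAPI staining. The percent of CD11b-positive cells per concentration gave the IC50 curve.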

In the next test the target is full-length human LSD1 (Homo sapiens (Human), UniProt O60341). As to the kind of experiment: In vitro enzyme inhibition assay LSD-1 (TR-FRET). It is filed as biochemical. The settings on record: H3K4me1-biotin peptide. In outline: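 Demethylase activity of full-length human LSD1 was detected by TR-FRET after 1 hour incubation at room temperature. Excitation was at 320 nm, with emission at 615 nm and 665 nm. IC50 values were derived from the inhibition data.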
(In general: Time-resolved FRET reads energy transfer from a long-lived donor to a nearby acceptor.)

Molecules are shown by their SMILES.

On to `COc1ccc(-n2c(-c3ccc(C#N)c(F)c3)nc(C(=O)N3CCC[C@@H](N)C3)c2C)cc1` [Example 12, 4-[4-[(3R)-3-aminopiperidine-1-carbonyl]-1-(4-methoxyphenyl)-5-methylimidazol-2-yl]-2-fluorobenzonitrile], for which the IC50 in test [1] is at most 0.1 µM.

On to `COc1ccc(-n2c(-c3ccc(C#N)c(F)c3)nc(C(=O)N3CC[C@H](N)C3)c2C)cc1` [Example 14, 4-[4-[(3S)-3-aminopyrrolidine-1-carbonyl]-1-(4-methoxyphenyl)-5-methylimidazol-2-yl]-2-fluorobenzonitrile], for which the IC50 is at most 0.1 µM in test [1], below 0.1 µM in test [2] and below 0.1 µM at full-length human LSD1.

`COc1ccc(-n2c(-c3ccc(C#N)c(F)c3)nc(C(=O)N3CCC[C@@H](N)C3)c2C)cc1F` [Example 16, 4-[4-[(3R)-3-aminopiperidine-1-carbonyl]-1-(3-fluoro-4-methoxyphenyl)-5-methylimidazol-2-yl]-2-fluorobenzonitrile]: in test [1], the IC50 is at most 0.1 µM.

In test [1], `COc1ccc(-n2c(-c3ccc(C#N)c(F)c3)nc(C(=O)N3CC[C@H](N)C3)c2C)cc1F` [Example 18, 4-[4-[(3S)-3-aminopyrrolidine-1-carbonyl]-1-(3-fluoro-4-methoxyphenyl)-5-methylimidazol-2-yl]-2-fluorobenzonitrile] gave an IC50 of at most 0.1 µM.

Consider `CN[C@H]1CCN(C(=O)c2nc(-c3ccc(C#N)c(F)c3)n(-c3ccc(OC)c(F)c3)c2C)C1` [Example 64, 2-Fluoro-4-[1-(3-fluoro-4-methoxyphenyl)-5-methyl-4-[(3S)-3-(methylamino)pyrrolidine-1-carbonyl]imidazol-2-yl]benzonitrile], for which the figures for the IC50 (in test [1]; in test [2]; on full-length human LSD1) were at most 0.1 µM, below 0.1 µM and below 0.1 µM, respectively.

Regarding `COc1ccc(-n2c(-c3ccc(C#N)c(F)c3)nc(C(=O)N3CCC[C@@H](N)C3)c2F)cc1F` [Example 67, 4-[4-[(3R)-3-Aminopiperidine-1-carbonyl]-5-fluoro-1-(3-fluoro-4-methoxyphenyl)imidazol-2-yl]-2-fluorobenzonitrile], the results for the IC50 (in test [1]; in test [2]; at full-length human LSD1) were at most 0.1 µM, below 0.1 µM and below 0.1 µM, respectively.

Take `CN[C@@H]1CCCN(C(=O)c2nc(-c3ccc(C#N)c(F)c3)n(-c3ccc(OC)cc3)c2C)C1` [Example 70, 2-Fluoro-4-[1-(4-methoxyphenyl)-5-methyl-4-[(3R)-3-(methylamino)piperidine-1-carbonyl]imidazol-2-yl]benzonitrile]: the IC50 in test [1] is at most 0.1 µM; in test [2], below 0.1 µM; on full-length human LSD1, below 0.1 µM.

As for `Cn1nc2ccc(-n3c(-c4ccc(C#N)c(F)c4)nc(C(=O)N4CCC[C@@H](N)C4)c3Cl)cc2c1Cl` [Example 76, 4-[4-[(3R)-3-Aminopiperidine-1-carbonyl]-5-chloro-1-(3-chloro-2-methylindazol-5-yl)imidazol-2-yl]-2-fluorobenzonitrile], the IC50 in test [1] is at most 0.1 µM; in test [2] it was below 0.1 µM; on full-length human LSD1 it was below 0.1 µM.

Consider `COc1ccc(-n2c(-c3ccc(C#N)c(F)c3)nc(C(=O)N3CC(CN)C3)c2C)cc1F` [Example 88, 4-[4-[3-(Aminomethyl)azetidine-1-carbonyl]-1-(3-fluoro-4-methoxyphenyl)-5-methylimidazol-2-yl]-2-fluorobenzonitrile], for which, in test [1], the IC50 was at most 0.1 µM.

With `Cc1c(C(=O)N2CC[C@H](N(C)C)C2)nc(-c2ccc(C#N)c(F)c2)n1-c1ccc2nn(C)cc2c1` [Example 94, 4-[4-[(3S)-3-(Dimethylamino)pyrrolidine-1-carbonyl]-5-methyl-1-(2-methylindazol-5-yl)imidazol-2-yl]-2-fluorobenzonitrile], the IC50 in test [1] is at most 0.1 µM.

With `Cc1c(C(=O)N2CC[C@H](N(C)C)C2)nc(-c2ccc(C#N)c(F)c2)n1-c1ccc2nn(C)c(Cl)c2c1` [Example 96, 4-[1-(3-Chloro-2-methylindazol-5-yl)-4-[(3S)-3-(dimethylamino)pyrrolidine-1-carbonyl]-5-methylimidazol-2-yl]-2-fluorobenzonitrile], the figures for the IC50 (in test [1]; in test [2]; on full-length human LSD1) were at most 0.1 µM, below 0.1 µM and below 0.1 µM, respectively.

Take `Cn1nc2ccc(-n3cc(C(=O)N[C@@H]4CCCNC4)nc3-c3ccc(C#N)c(F)c3)cc2c1Cl` [Example 114, 1-(3-Chloro-2-methylindazol-5-yl)-2-(4-cyano-3-fluorophenyl)-N-[(3R)-piperidin-3-yl]imidazole-4-carboxamide]: the IC50 (in test [2]; against full-length human LSD1) was below 0.1 µM in each case.

On to `CN[C@@H]1CCCN(C(=O)c2cn(-c3ccc4nn(C)c(Cl)c4c3)c(-c3ccc(C#N)c(F)c3)n2)C1` [Example 115, 4-[1-(3-Chloro-2-methylindazol-5-yl)-4-[(3R)-3-(methylamino)piperidine-1-carbonyl]imidazol-2-yl]-2-fluorobenzonitrile], for which the IC50 (in test [2]; against full-length human LSD1) was below 0.1 µM throughout.

Turning to `CN[C@H]1CCCN(C(=O)c2cn(-c3ccc4nn(C)c(Cl)c4c3)c(-c3ccc(C#N)c(F)c3)n2)C1` [Example 116, 4-[1-(3-Chloro-2-methylindazol-5-yl)-4-[(3S)-3-(methylamino)piperidine-1-carbonyl]imidazol-2-yl]-2-fluorobenzonitrile], the IC50 (in test [2]; against full-length human LSD1) was below 0.1 µM throughout.

As to `Cc1c(C(=O)N[C@@H]2CCCNC2)nc(-c2ccc(C#N)c(F)c2)n1-c1ccc2nn(C)c(Cl)c2c1` [Example 117, 1-(3-Chloro-2-methylindazol-5-yl)-2-(4-cyano-3-fluorophenyl)-5-methyl-N-[(3R)-piperidin-3-yl]imidazole-4-carboxamide], the IC50 (in test [2]; at full-length human LSD1) was below 0.1 µM each time.
